Starred links: 1 amine or outer side, 2 acyl side, 3 side chain; linkers in the order of their positions; H or OH if unused. Non-standard residues stand in square brackets, D forms with d. Residues, ends and D or L forms follow the SMILES beside them. Groups on a side chain read outwards from the residue. *: point of attachment. C18 diacid = O=C(O)CCCCCCCCCCCCCCCCC(=O)*; C16 diacid = O=C(O)CCCCCCCCCCCCCCC(=O)*; γGlu = O=C(O)[C@H](CCC(=O)[*:2])N[*:1]; Glutaryl = O=C(CCCC(=O)[*:2])[*:1]; Nle = CCCC[C@H](N)C(=O)O; AEEA = NCCOCCOCC(=O)O; Aib = CC(C)(N)C(=O)O
How the values were obtained:
[1] = Solubility by visual inspection of peptide solutions; assay type: physicochemical
Protocol: (§1) Peptides were either dissolved in sodium phosphate buffer (50 mM, pH 7.4, filtered) or dissolved in ultrapure (MilliQ) water (adjusted to pH 7.4 with NaOH, filtered) (see Table 3). All peptide samples were prepared to a concentration of 1, 5, 7.5 or 15 mg/ml. All samples, with the exception of reference peptides GIP(3-30), AT158, and AT482 dissolved readily and produced clear and colorless solutions with gentle mixing. Peptide samples were subsequently filtered through 0.22 μm nylon filters (Q-Max® RR syringe filter, 13 mm, Frisenette, DK) to produce particle-free solutions. All samples were added to a 96-well plate reader for the ThT assay at t=0.
Clear visual appearance may be taken as an indicator of the immediate solubility of the peptide. […] Thus, A13Aib and/or N24E substitutions appear to increase solubility.

[2] = Physical stability: fibril formation in Thioflavin T (ThT) assay with agitation; assay type: physicochemical; settings: for Avr lag time / Avr lag time (h): 25° C., agitation
Protocol: Continuous measurement of the fluorescence emission at 486 nm can be used as a measure of fibrillation behavior of peptides and proteins. The time until onset of fibrillation or fibrillation lag time is estimated here by defining the lag time (Tlag) as the point in time where the signal relative to the pre-transition baseline has reached 10% of the post-transition baseline.
50 mM sodium phosphate buffer for dissolving some samples was prepared in ultrapure water (Milli-Q® Reference A+ System, Merck) with a resistivity of 18.2 MΩ·cm. The buffer was adjusted to pH 7.4 and filtered.
The ultrapure water (MilliQ) for dissolving some samples was adjusted to pH 7.4 with NaOH and filtered prior to sample preparation.
as §1
For each sample, […] ThT (1 mM) was added to 1.2 mL peptide solution. From this sample mixture, an amount of 200 uL/well was pipetted into four or five wells (n=4 or 5). Blank samples (buffer+ThT) were also included. One 3 mm silica bead was added to each well containing samples and the plate was subjected to orbital rotation at 300 rpm to agitate and stress the samples. The temperature was kept at 25° C. throughout the measurement.

CC[C@H](C)[C@H](NC(=O)[C@H](CO)NC(=O)[C@H](Cc1ccc(O)cc1)NC(=O)[C@H](CC(=O)O)NC(=O)[C@H](CO)NC(=O)[C@@H](NC(=O)[C@H](Cc1ccccc1)NC(=O)[C@@H](NC(=O)CNC(=O)[C@@H](N)CCC(=O)O)[C@@H](C)O)[C@@H](C)CC)C(=O)N[C@@H](C)C(=O)N[C@@H](CCSC)C(=O)N[C@@H](CC(=O)O)C(=O)N[C@@H](CCCCN)C(=O)N[C@H](C(=O)N[C@@H](CCCCNC(=O)CCCCCCCCCCCCCCC(=O)O)C(=O)N[C@@H](CCC(N)=O)C(=O)N[C@@H](CCC(N)=O)C(=O)N[C@@H](CC(=O)O)C(=O)N[C@@H](Cc1ccccc1)C(=O)N[C@H](C(=O)N[C@@H](CC(N)=O)C(=O)N[C@@H](Cc1c[nH]c2ccccc12)C(=O)N[C@@H](CC(C)C)C(=O)N[C@@H](CC(C)C)C(=O)N[C@@H](C)C(=O)N[C@@H](CCC(N)=O)C(=O)N[C@@H](CCCCN)C(=O)N1CCC[C@H]1C(=O)N[C@@H](CO)C(=O)N[C@@H](CO)C(=O)NCC(=O)N[C@@H](C)C(=O)N1CCC[C@H]1C(=O)N1CCC[C@H]1C(=O)N1CCC[C@H]1C(=O)N[C@@H](CO)C(=O)O)C(C)C)[C@@H](C)CC [AT364, GIP(3-30) [H18K] C16diacid+Cex(31-39), reference compound] (H-EGTFISDYSIAMDKIK(C16 diacid)QQDFVNWLLAQKPSSGAPPPS-OH; N-terminus assumed)
Visual appearance ([1]; 1 mg/ml, CI, Phosphate (7.4)): Clear | Visual appearance ([1]; 1 mg/ml, Na, MilliQ): Clear | Visual appearance ([1]; 1 mg/ml, TFA, Phosphate (7.4)): Clear | Visual appearance ([1]; 5 mg/ml, Na, MilliQ): Clear | Visual appearance ([1]; 5 mg/ml, TFA, MilliQ (8)): Clear | Visual appearance ([1]; 5 mg/ml, TFA, Phosphate): Clear | Visual appearance ([1]; 7.5 mg/ml, Na, MilliQ (8)): Clear | Visual appearance ([1]; 15 mg/ml, Na, MilliQ (8)): Clear | Avr lag time ([2]; 1 mg/ml, TFA, Phosphate (7.4)): <18 h | Avr lag time ([2]; 5 mg/ml, Na, MilliQ): 20 to 50 h | Avr lag time ([2]; 5 mg/ml, TFA, MilliQ (8)): <18 h | Avr lag time ([2]; 5 mg/ml, TFA, Phosphate): <18 h | Fibril formation (FIG. 1) ([2]; in phosphate buffer, about 94 h, orbital rotation): forms fibrils

CCCC[C@H](NC(=O)C(C)(C)NC(=O)[C@@H](NC(=O)[C@H](CO)NC(=O)[C@H](Cc1ccc(O)cc1)NC(=O)[C@H](CCC(=O)O)NC(=O)[C@H](CO)NC(=O)[C@@H](NC(=O)[C@H](Cc1ccccc1)NC(=O)[C@@H](NC(=O)CNC(=O)CCCC(=O)O)[C@@H](C)O)[C@@H](C)CC)[C@@H](C)CC)C(=O)N[C@@H](CCC(=O)O)C(=O)N[C@@H](CCCCN)C(=O)N[C@H](C(=O)N[C@@H](CCCCNC(=O)COCCOCCNC(=O)COCCOCCNC(=O)CC[C@H](NC(=O)CCCCCCCCCCCCCCCCC(=O)O)C(=O)O)C(=O)N[C@@H](CCC(N)=O)C(=O)N[C@@H](CCC(N)=O)C(=O)N[C@@H](CCC(=O)O)C(=O)N[C@@H](Cc1ccccc1)C(=O)N[C@H](C(=O)N[C@@H](CCC(=O)O)C(=O)N[C@@H](Cc1c[nH]c2ccccc12)C(=O)N[C@@H](CC(C)C)C(=O)N[C@@H](CC(C)C)C(=O)N[C@@H](C)C(=O)N[C@@H](CCC(N)=O)C(=O)N[C@@H](CCCCN)C(=O)N1CCC[C@H]1C(=O)N[C@@H](CO)C(=O)N[C@@H](CO)C(=O)NCC(=O)N[C@@H](C)C(=O)N1CCC[C@H]1C(=O)N1CCC[C@H]1C(=O)N1CCC[C@H]1C(=O)N[C@@H](CO)C(=O)O)C(C)C)[C@@H](C)CC [AT706] (Glutaryl-GTFISEYSI[Aib][Nle]EKIK([AEEA-AEEA-γGlu-C18 diacid])QQEFVEWLLAQKPSSGAPPPS-OH)
Visual appearance ([1]; 1 mg/ml, TFA, Phosphate (7.4)): Clear | Visual appearance ([1]; 7.5 mg/ml, Na, MilliQ (8)): Clear | Visual appearance ([1]; 15 mg/ml, Na, MilliQ (8)): Clear | Avr lag time (h) ([2]; 1 mg/ml, TFA, Phosphate (7.4)): fnd (Fnd = fibrils not detected within experiment time (96 hours) with agitation.) | Avr lag time (h) ([2]; 7.5 mg/ml, Na, MilliQ (8)): fnd (Fnd = fibrils not detected within experiment time (96 hours) with agitation.) | Avr lag time (h) ([2]; 15 mg/ml, Na, MilliQ (8)): fnd (Fnd = fibrils not detected within experiment time (96 hours) with agitation.)

CC[C@H](C)[C@H](NC(=O)[C@H](CCCCN)NC(=O)[C@H](CC(=O)O)NC(=O)[C@H](CC(C)C)NC(=O)C(C)(C)NC(=O)[C@@H](NC(=O)[C@H](CO)NC(=O)[C@H](Cc1ccc(O)cc1)NC(=O)[C@H](CCC(=O)O)NC(=O)[C@H](CO)NC(=O)[C@@H](NC(=O)[C@H](Cc1ccccc1)NC(=O)[C@@H](NC(=O)CNC(=O)[C@@H](N)CCC(=O)O)[C@@H](C)O)[C@@H](C)CC)[C@@H](C)CC)C(=O)N[C@@H](CCCCNC(=O)COCCOCCNC(=O)COCCOCCNC(=O)CC[C@H](NC(=O)CCCCCCCCCCCCCCCCC(=O)O)C(=O)O)C(=O)N[C@@H](CCC(N)=O)C(=O)N[C@@H](CCC(N)=O)C(=O)N[C@@H](CC(=O)O)C(=O)N[C@@H](Cc1ccccc1)C(=O)N[C@H](C(=O)N[C@@H](CCC(=O)O)C(=O)N[C@@H](Cc1c[nH]c2ccccc12)C(=O)N[C@@H](CC(C)C)C(=O)N[C@@H](CC(C)C)C(=O)N[C@@H](C)C(=O)N[C@@H](CCC(N)=O)C(=O)N[C@@H](CCCCN)C(=O)N1CCC[C@H]1C(=O)N[C@@H](CO)C(=O)N[C@@H](CO)C(=O)NCC(=O)N[C@@H](C)C(=O)N1CCC[C@H]1C(=O)N1CCC[C@H]1C(=O)N1CCC[C@H]1C(=O)N[C@@H](CO)C(=O)O)C(C)C [AT712] (H-EGTFISEYSI[Aib]LDKIK([AEEA-AEEA-γGlu-C18 diacid])QQDFVEWLLAQKPSSGAPPPS-OH; N-terminus assumed)
Visual appearance ([1]; 1 mg/ml, TFA, Phosphate (7.4)): Clear | Avr lag time (h) ([2]; 1 mg/ml, TFA, Phosphate (7.4)): fnd (Fnd = fibrils not detected within experiment time (96 hours) with agitation.)

CC[C@H](C)[C@H](NC(=O)[C@H](CCCCN)NC(=O)[C@H](CCC(=O)O)NC(=O)[C@H](CC(C)C)NC(=O)C(C)(C)NC(=O)[C@@H](NC(=O)[C@H](CO)NC(=O)[C@H](Cc1ccc(O)cc1)NC(=O)[C@H](CCC(=O)O)NC(=O)[C@H](CO)NC(=O)[C@@H](NC(=O)[C@H](Cc1ccccc1)NC(=O)[C@@H](NC(=O)CNC(=O)[C@@H](N)CCC(=O)O)[C@@H](C)O)[C@@H](C)CC)[C@@H](C)CC)C(=O)N[C@@H](CCCCNC(=O)COCCOCCNC(=O)COCCOCCNC(=O)CC[C@H](NC(=O)CCCCCCCCCCCCCCCCC(=O)O)C(=O)O)C(=O)N[C@@H](CCC(N)=O)C(=O)N[C@@H](CCC(N)=O)C(=O)N[C@@H](CCC(=O)O)C(=O)N[C@@H](Cc1ccccc1)C(=O)N[C@H](C(=O)N[C@@H](CCC(=O)O)C(=O)N[C@@H](Cc1c[nH]c2ccccc12)C(=O)N[C@@H](CC(C)C)C(=O)N[C@@H](CC(C)C)C(=O)N[C@@H](C)C(=O)N[C@@H](CCC(N)=O)C(=O)N[C@@H](CCCCN)C(=O)N1CCC[C@H]1C(=O)N[C@@H](CO)C(=O)N[C@@H](CO)C(=O)NCC(=O)N[C@@H](C)C(=O)N1CCC[C@H]1C(=O)N1CCC[C@H]1C(=O)N1CCC[C@H]1C(=O)N[C@@H](CO)C(N)=O)C(C)C [AT714] (H-EGTFISEYSI[Aib]LEKIK([AEEA-AEEA-γGlu-C18 diacid])QQEFVEWLLAQKPSSGAPPPS-NH2; N-terminus assumed)
Visual appearance ([1]; 1 mg/ml, TFA, Phosphate (7.4)): Clear | Avr lag time (h) ([2]; 1 mg/ml, TFA, Phosphate (7.4)): fnd (Fnd = fibrils not detected within experiment time (96 hours) with agitation.)

CC[C@H](C)[C@H](NC(=O)[C@H](CCCCN)NC(=O)[C@H](CCC(=O)O)NC(=O)[C@H](CC(C)C)NC(=O)C(C)(C)NC(=O)[C@@H](NC(=O)[C@H](CO)NC(=O)[C@H](Cc1ccc(O)cc1)NC(=O)[C@H](CCC(=O)O)NC(=O)[C@H](CO)NC(=O)[C@@H](NC(=O)[C@H](Cc1ccccc1)NC(=O)[C@@H](NC(=O)CNC(=O)CCCC(=O)O)[C@@H](C)O)[C@@H](C)CC)[C@@H](C)CC)C(=O)N[C@@H](CCCCNC(=O)CCCCCCCCCCCCCCC(=O)O)C(=O)N[C@@H](CCC(N)=O)C(=O)N[C@@H](CCC(N)=O)C(=O)N[C@@H](CCC(=O)O)C(=O)N[C@@H](Cc1ccccc1)C(=O)N[C@H](C(=O)N[C@@H](CCC(=O)O)C(=O)N[C@@H](Cc1c[nH]c2ccccc12)C(=O)N[C@@H](CC(C)C)C(=O)N[C@@H](CC(C)C)C(=O)N[C@@H](C)C(=O)N[C@@H](CCC(N)=O)C(=O)N[C@@H](CCCCN)C(=O)N1CCC[C@H]1C(=O)N[C@@H](CO)C(=O)N[C@@H](CO)C(=O)NCC(=O)N[C@@H](C)C(=O)N1CCC[C@H]1C(=O)N1CCC[C@H]1C(=O)N1CCC[C@H]1C(=O)N[C@@H](CO)C(=O)O)C(C)C [AT717] (Glutaryl-GTFISEYSI[Aib]LEKIK(C16 diacid)QQEFVEWLLAQKPSSGAPPPS-OH)
Visual appearance ([1]; 1 mg/ml, TFA, Phosphate (7.4)): Clear | Visual appearance ([1]; 7.5 mg/ml, Na, MilliQ (8)): Clear | Visual appearance ([1]; 15 mg/ml, Na, MilliQ (8)): Clear | Avr lag time (h) ([2]; 1 mg/ml, TFA, Phosphate (7.4)): fnd (Fnd = fibrils not detected within experiment time (96 hours) with agitation.) | Avr lag time (h) ([2]; 7.5 mg/ml, Na, MilliQ (8)): fnd (Fnd = fibrils not detected within experiment time (96 hours) with agitation.) | Avr lag time (h) ([2]; 15 mg/ml, Na, MilliQ (8)): fnd (Fnd = fibrils not detected within experiment time (96 hours) with agitation.)

Source: patent publication US20230416330A1, “Optimized GIP Peptide Analogues” (Antag Therapeutics ApS, priority 2019, published 2023)
